# Measurements from the PolyMetriX glass transition set.
# ± gives the standard deviation of the reports.
row,Structure (SMILES),glass transition temperature [°C]
1,*COc1ccc(C(C)(C)c2ccc(Oc3ccc(*)n3-c3ccc([N+](=O)[O-])cc3)cc2)cc1 (repeat unit),76.8
2,*O[Si](*)(C)C (repeat unit) [Poly(dimethylsiloxane)],-124 ± 2
3,*CC(OCC(C)C)C1C(=O)OC(=O)C1* (repeat unit),145.00
4,*c1ccc(Sc2ccc(-c3nc4cc(-c5ccc6nc(-c7ccccc7)c(*)nc6c5)ccc4nc3-c3ccccc3)cc2)cc1 (repeat unit),288.00
5,*c1ccc(C(c2ccc(N3C(=O)c4cc(-c5ccc(C(C)(C)C)cc5)c(-c5cc6c(cc5-c5ccc(C(C)(C)C)cc5)C(=O)N(*)C6=O)cc4C3=O)cc2)(C(F)(F)F)C(F)(F)F)cc1 (repeat unit),381.00
6,*Oc1ccc(C(c2ccccc2)c2ccc(OC(*)=O)cc2C)c(C)c1 (repeat unit),182.00
7,*c1ccc2c(c1)C(=O)N(c1cc(N3C(=O)c4ccc(C(*)(C(F)(F)F)C(F)(F)F)cc4C3=O)cc(C(F)(F)F)c1)C2=O (repeat unit),290.50 ± 9.2
8,*NC1CCC(CC2CCC(NC(=O)CCCCC(*)=O)CC2)CC1 (repeat unit),185.00
9,*CCOCCOC(=O)CCSCCC(=O)O* (repeat unit),-33.00
10,*Oc1cc(C(C)(C)C)c(Oc2ccc(C(=O)Nc3ccc(C(C)(C)c4ccc(NC(=O)c5ccc(*)cc5)cc4)cc3)cc2)cc1C(C)(C)C (repeat unit),254.00
11,*c1ccc(S(=O)(=O)c2ccc(N3C(=O)c4ccc(Oc5ccc6c(c5)C(=O)N(*)C6=O)cc4C3=O)cc2)cc1 (repeat unit),286.00 ± 34
12,*/C=C/CCCCCCC(Cl)CCCCCC* (repeat unit),-57.00
13,*c1ccc(CC(=O)Nc2ccc(-c3ccc(NC(=O)Cc4ccc(-c5sc(*)c(-c6ccccc6)c5-c5ccccc5)cc4)cc3)cc2)cc1 (repeat unit),272.00
14,*C(*)(F)F (repeat unit) [Poly(tetrafluoroethylene)],118.42 ± 2.2
15,*O[Si](C)(C=C)O[Si](C)(C=C)O[Si](C)(C)c1ccc([Si](*)(C)C)cc1 (repeat unit),-86.00
16,*c1cccc(C(=O)Nc2ccc(Oc3cccc(Oc4ccc(NC(=O)c5cccc(N6C(=O)c7ccc(-c8ccc9c(c8)C(=O)N(*)C9=O)cc7C6=O)c5)cc4)c3)cc2)c1 (repeat unit),253.00
17,*Nc1cc(NC(=O)c2ccc(C(*)=O)cc2)cc(C(=O)Oc2ccccc2)c1 (repeat unit),200.00
18,*CC(*)c1cc(OC)c(OC(C)=O)c(OC)c1 (repeat unit),147.00
19,*C(=O)Nc1ccc2c(c1)-c1cc(NC(=O)c3ccc4c(c3)C(=O)N(c3cccc(P(=O)(c5ccccc5)c5cccc(N6C(=O)c7ccc(*)cc7C6=O)c5)c3)C4=O)ccc1C2 (repeat unit),248.00
20,*c1ccc2c(c1)C(=O)N(c1ccc(-c3ccc(N4C(=O)c5ccc(C(*)(C(F)(F)F)C(F)(F)F)cc5C4=O)cc3C(F)(F)F)c(C(F)(F)F)c1)C2=O (repeat unit),327.00 ± 18
21,*c1ccc(Oc2ccc(N3C(=O)c4c(c(-c5ccccc5)c(-c5ccc(Oc6ccc(-c7c(-c8ccccc8)c8c(c(-c9ccccc9)c7-c7ccccc7)C(=O)N(*)C8=O)cc6)cc5)c(-c5ccccc5)c4-c4ccccc4)C3=O)cc2)cc1 (repeat unit),360.00
22,*c1ccc(Oc2ccc(C3(c4ccc(Oc5ccc(N6C(=O)c7ccc(Oc8ccc(C9(c%10ccc(Oc%11ccc%12c(c%11)C(=O)N(*)C%12=O)cc%10)CCC(c%10ccccc%10)CC9)cc8)cc7C6=O)cc5)cc4)CC4CCC3C4)cc2)cc1 (repeat unit),245.00
23,*C(F)(F)C1(F)C(F)(F)C(*)(F)C(F)(F)C(F)(Cl)C1(F)F (repeat unit),147.00
24,*C(F)(F)C(*)(F)C(F)(F)F (repeat unit),158.50
25,*c1ccc(Oc2ccc(C3(c4ccc(Oc5ccc(-c6cccc(*)n6)cc5C(F)(F)F)cc4)c4ccccc4-c4ccccc43)cc2)c(C(F)(F)F)c1 (repeat unit),182.50
26,*Oc1ccc(C(C)(C)c2ccc(OC(=O)OCCN(CCOC(*)=O)c3ccc4[nH]c5ccccc5c4c3)cc2)cc1 (repeat unit),90.00
27,*c1ccc(Oc2ccc(-c3nc4ccc(-c5ccc6nc(*)c(-c7ccccc7)c(-c7ccccc7)c6c5)cc4c(-c4ccccc4)c3-c3ccccc3)cc2)cc1 (repeat unit),300.00
28,*C(=O)Nc1ccc(Oc2ccccc2-c2ccccc2Oc2ccc(NC(=O)c3ccc4c(c3)C(=O)N(c3ccc(Oc5ccc(S(=O)(=O)c6ccc(Oc7ccc(N8C(=O)c9ccc(*)cc9C8=O)cc7)cc6)cc5)cc3)C4=O)cc2)cc1 (repeat unit),236.00
29,*C(=O)c1ccc(N(*)CCCCC)cc1 (repeat unit),83.50
30,*Nc1ccc(C2(c3ccc(NC(=O)c4ccc(-c5ccc(C(*)=O)c(C)c5)cc4C)cc3)c3ccccc3-c3ccccc32)cc1 (repeat unit),293.00

# Second part, the molecule after the results:
row,glass transition temperature [°C],Structure (SMILES)
1,92.00,*Nc1ccc(CC(C)(C)NC(=O)CCCCCCCCC(*)=O)cc1 (repeat unit)
2,59.00,*CC(O)CN(CC(O)COc1ccc(C(C)(C)c2ccc(O*)cc2)cc1)c1ccc(/N=N/c2ccc([N+](=O)[O-])cc2)cc1 (repeat unit)
3,37.00,*CCOCCOCCOCCOC(=O)Nc1ccc(Cc2ccc(NC(=O)O*)cc2)cc1 (repeat unit)
4,36.70,*CC(*)C(=O)OCCCCOc1ccc(/N=N/c2ccc([N+](=O)[O-])cc2)cc1 (repeat unit)
5,144.00,*Oc1ccc(Oc2ccc(C(=O)c3cccc(NC(=O)CCCCCCCCC(=O)Nc4cccc(C(=O)c5ccc(*)cc5)c4)c3)cc2)cc1 (repeat unit)
6,186.00,*c1ccc(OCCCCCCCCCCCCCCCC)c(N2C(=O)CC(C3C=C(C)C4C(=O)N(*)C(=O)C4C3)C2=O)c1 (repeat unit)
7,62.00,*Oc1ccc(/N=C/C=N/c2ccc(OC(=O)NC3CC(C)(C)CC(C)(CNC(*)=O)C3)cc2)cc1 (repeat unit)
8,175.00,*c1ccc(NC(=O)c2ccc(OCCOCCOc3ccc(C(=O)Nc4ccc5[nH]c(*)nc5c4)cc3)cc2)cc1 (repeat unit)
9,124.00,*Oc1ccc(Oc2ccc(C(=O)c3ccc(Oc4ccc(Oc5cccc(*)n5)cc4)cc3)cc2)cc1 (repeat unit)
10,46.00,*CCCCCCCCCCCCNC(=O)CCCCCCCCCCCCCCC(=O)N* (repeat unit)
11,-8.00,*CCCCCCOC(=O)OCCCCOC(=O)OCCCCCCOc1ccc(Oc2ccc(O*)cc2)cc1 (repeat unit)
12,105.00,*C(=O)OCCCCCCCCOC(=O)c1ccc(NC(=O)c2ccc(N3C(=O)c4ccc(*)cc4C3=O)cc2)cc1 (repeat unit)
13,269.00,*Oc1ccc(NC(=O)Nc2cc(NC(=O)Nc3ccc(*)cc3)ccc2C)cc1 (repeat unit)
14,91.00,*CC(*)(C)C(=O)OCCCCCCOc1ccc(/N=N/c2ccc(OC)cc2)cc1 (repeat unit)
